pIC50: −log10 of the molar value.
Tests used:
[1] = biological target: T1, human STAT6/pIL-4Rα (Homo sapiens, UniProt P42226); assay: Binding inhibitory activity between human STAT6/pIL-4Rα by fluorescence polarization method; conditions: rhSTAT6 (123-658) / FAM-pIL-4Rα peptide
T1 construct: histidine tag
T1 sequence (P42226 123-658): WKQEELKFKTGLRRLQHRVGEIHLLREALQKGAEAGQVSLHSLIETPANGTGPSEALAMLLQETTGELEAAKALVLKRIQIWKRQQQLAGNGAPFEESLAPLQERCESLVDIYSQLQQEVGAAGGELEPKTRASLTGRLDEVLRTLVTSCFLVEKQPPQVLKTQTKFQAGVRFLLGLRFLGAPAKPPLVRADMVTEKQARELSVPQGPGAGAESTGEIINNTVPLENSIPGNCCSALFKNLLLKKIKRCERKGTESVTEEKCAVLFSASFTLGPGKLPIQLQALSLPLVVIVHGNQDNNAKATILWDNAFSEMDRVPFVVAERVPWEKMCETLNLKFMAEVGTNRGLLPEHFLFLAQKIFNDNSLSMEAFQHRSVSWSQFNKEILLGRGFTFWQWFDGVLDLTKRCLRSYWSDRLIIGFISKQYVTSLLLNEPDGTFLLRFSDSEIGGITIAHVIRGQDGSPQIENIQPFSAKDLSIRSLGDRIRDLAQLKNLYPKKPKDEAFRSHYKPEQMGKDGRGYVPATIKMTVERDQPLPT
How it was run: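 His-tagged human STAT6 (residues 123–658, E. coli-expressed) was preincubated with compound for 30 min at RT in the dark, in buffer e.g. 50 mM NaCl, 10 mM HEPES pH 7.0, 1 mM DTT, 1 mM EDTA, 0.01% NP-40. FAM-pIL-4Rα peptide was then added for 30 min. Fluorescence polarisation was read at 485/535 nm, with IC50 interpolated linearly between two points flanking 50%.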

[2] = tested on: human STAT6; assay: Human STAT6 dependent reporter activity (IL-4 stimulated STAT6 reporter assay using STAT6-HEK293 cells); type: cell-based; conditions: Homo sapiens, IL-4 stimulation, luciferase activity, read-out: Inhibition rate (%); for inhibition at 0.1 µM: compound 0.1 μmol/L; for inhibition at 1 µM: compound 1 μmol/L

| SMILES | pIC50 [1] | inhibition at 0.1 µM [2] | inhibition at 1 µM [2] |
| --- | --- | --- | --- |
| COCCn1c(-c2ccc(-n3c(C)nn(C)c3=O)cc2)cc2cc(C(F)(F)F)cc(C(=O)Nc3cccc(OC)n3)c21 [Ex. 78] | 6.47 | 89% | 100% |
| CC1CC(C)N(c2ccc(-c3cc4ccnc(C(=O)Nc5ccc(F)c(C(N)=O)c5)c4n3CC3(C#N)CC3)cc2)C1=O (single isomer, unassigned) [Ex. 221] | 6.44 | 60% | 94% |
| CCn1c(-c2ccc(-n3c(C)nn(C)c3=O)cc2)cc2cc(C(F)(F)F)cc(C(=O)Nc3cccc(C(N)=O)c3)c21 [Ex. 37] | 6.60 | 96% | 100% |
| Cc1nn(C)c(=O)n1-c1ccc(-c2cc3cc(C(F)(F)F)cc(C(=O)Nc4ccc(F)c(C(N)=O)c4)c3n2CC2CC2)cc1 [Ex. 67] | 6.24 | 56% | 96% |
| CNC(=O)c1cccc(NC(=O)c2cc(C(F)(F)F)cc3cc(-c4ccc(-n5c(C)nn(C)c5=O)cc4)n(CCOC)c23)c1 [Ex. 44] | 6.77 | 93% | 100% |
| COCCn1c(-c2ccc(-n3cnn(C)c3=O)cc2)cc2cc(C(F)(F)F)cc(C(=O)Nc3cccc(C(N)=O)c3F)c21 [Ex. 42] | 6.59 | 90% | 100% |
| COCCn1c(-c2ccc(-n3c(C)nn(C)c3=O)cc2)cc2cc(C(F)(F)F)cc(C(=O)Nc3cccc(C(=O)Nc4cccn(C)c4=O)c3)c21 [Ex. 175] | 6.40 | 65% |  |
| CCn1c(-c2ccc(-n3c(C)nn(C)c3=O)cc2)cc2nc(C(F)(F)F)cc(C(=O)Nc3ccc(F)c(C(N)=O)c3)c21 [Ex. 74] | 6.32 | 21% | 91% |
| CCn1c(-c2ccc(-n3c(C)nn(C)c3=O)cc2)cc2ncnc(C(=O)Nc3ccc(F)c(C(N)=O)c3)c21 [Ex. 110] | 6.37 | 65% |  |
| Cc1nn(C)c(=O)n1-c1ccc(-c2cc3ccnc(C(=O)Nc4ccc(F)c(C(N)=O)c4)c3n2CCC(F)F)cc1 [Ex. 111] | 6.26 | 25% | 80% |
| CCn1c(-c2ccc(-n3c(C)nn(C)c3=O)cc2)cc2ccnc(C(=O)Nc3ccc(F)c(C(=O)NCC#N)c3)c21 [Ex. 168] | 6.46 | 60% | 99% |
| COCCn1c(-c2ccc(-n3c(C)nn(C)c3=O)cc2)cc2cc(C(F)(F)F)cc(C(=O)Nc3cccc(C(=O)Nc4cccc(COC)n4)c3)c21 [Ex. 174] | 6.17 | 70% |  |
| COCCn1c(-c2ccc(-n3c(C)nn(C)c3=O)cc2)cc2cc(C(F)(F)F)nc(C(=O)Nc3cccc(C(N)=O)c3F)c21 [Ex. 97] | 6.54 | 89% |  |
| CCn1c(-c2ccc(-n3c(C)nn(C)c3=O)cc2)cc2nccc(C(=O)Nc3ccc(F)c(C(N)=O)c3)c21 [Ex. 57] | 6.31 | 89% | 100% |
| CCn1c(-c2ccc(-n3c(C)nn(C)c3=O)cc2)cc2ccnc(C(=O)Nc3cccc(C(=O)NCC#N)c3)c21 [Ex. 189] | 6.42 | 72% | 97% |
| CCn1c(-c2ccc(-n3cnn(C)c3=O)cc2)c(Cl)c2cc(C(F)(F)F)cc(C(=O)Nc3ccc(F)c(C(N)=O)c3)c21 [Ex. 142] | 6.52 | 94% | 100% |
| COCCn1c(-c2ccc(-n3c(C)nn(C)c3=O)cc2)cc2cc(C(F)(F)F)cc(C(=O)Nc3cccc(N)n3)c21 [Ex. 95] | 6.55 | 74% |  |
| CCn1c(-c2ccc(C(=O)N(C)C)cc2)cc2ccnc(C(=O)Nc3ccc(F)c(C(=O)NCC#N)c3)c21 [Ex. 148] | 6.48 | 86% |  |
| COCCn1c(-c2ccc(-n3c(C)nn(C)c3=O)cc2)cc2cc(C(F)(F)F)cc(C(=O)Nc3cccc(C(N)=O)c3F)c21 [Ex. 33] | 7.00 | 75% | 100% |
| CCn1c(-c2ccc(-n3c(C)nn(C)c3=O)cc2C(F)(F)F)cc2cc(C(F)(F)F)cc(C(=O)Nc3ccc(F)c(C(N)=O)c3)c21 [Ex. 152] | 6.19 | 38% | 84% |
| COCCn1c(-c2ccc(-n3c(C)nn(C)c3=O)cc2)cc2cc(C(F)(F)F)cc(C(=O)Nc3cccc(C(=O)Nc4ccn(CC(=O)OC)n4)c3)c21 [Ex. 181] | 6.51 | 94% |  |

Reference: US20260092054A1, “FUSED RING COMPOUND AND PHARMACEUTICAL CONTAINING SAME” (KAKEN PHARMACEUTICAL CO., LTD., priority 2022, published 2026)
